How the values were obtained:
[1] = tested on: TROP2; assay: Immunoblotting of TROP2 protein in breast cancer cell lines; type: cell-based, human
Description: (§1) Following treatments, cells were washed with cold PBS and lysed in 1× Laemmli buffer. The protein concentrations in the cell lysates were measured using Pierce BCA protein assay Kit (ThermoFisher). The same amount protein for each sample (20-50 μg/lane) was loaded to SDS-PAGE gel, followed by transferring proteins to a 0.2 μm nitrocellulose membrane (Bio-Rad Laboratories). Membranes were blocked with blocking buffer Blocker Casein in PBS (ThermoFisher) at room temperature for 1 hour, followed by immunoblotting with the primary antibodies in 5% BSA TBST buffer at room temperature overnight. After washing with TBST buffer, the immunoblotting membrane was then probed with the secondary antibodies with fluorescence conjugation. The immunoblots were visualized and the immunoblotting signal intensity quantitated using the Odyssey IR imaging system (Li-Cor Biosciences).
Five cell lines (BCX-011, BCX-010, Sum-159, BCX-010 transfected with control shRNA, and BCX-010 transfected with Zeb1 shRNA) were treated with decitabine (a DNA methyltransferase inhibitor) at 1 μM for 3 days (FIG. 1B). To knockdown Zeb1, BCX-010 cells were transduced with a lentivirus containing Zeb1 shRNA, followed by puromycin selection.
(§2) Breast cancer cell lines BCX-010CL, BCX-011CL, and SUM159 cells were treated with decitabine, azacytidine, panobinostat, vorinostat, tazemetostat at […] respectively for 3 days, followed by immunoblotting for E-cad and TROP2 with β-actin as control (FIG. 1D).
(§3) The treated cells were lysed. The cell lysate samples were loaded onto SDS-PAGE gel for the western blot. Antibodies ab-214488 and cst-3195 were used to detect TROP2 and E-cadherin respectively. β-actin was used as loading control (FIG. 1C).

[2] = tested on: E-cadherin; assay: Immunoblotting of E-cadherin in breast cancer cell lines; type: cell-based, human; settings: BCX-010CL cells
Description: as §1, §2, §3

[3] = tested on: SLFN11; assay: Immunoblotting of SLFN11 in breast cancer cell lines; type: cell-based, human; settings: BCX-010CL, HCC-1937, HCC-1143, MDA-MB-157; 1 μM for 3 days; FIG. 10A
Description: as §1

[4] = tested on: TROP2 mRNA; assay: Quantitative RT-PCR of TROP2 mRNA; type: cell-based, human; settings: decitabine 1 μM, three days; BCX-010 (control or Zeb1 shRNA) and Sum-159 cells
Description: Following treatments, cells were lysed and total RNA was extracted using GeneJet RNA Purification Kit (ThermoFisher) according to manufacturer's manual. cDNA was synthesized from RNA using High-Capacity RNA-to-cDNA Kit (ThermoFisher) following manufacturer's manual. DNA amount in cDNA samples were quantitated using Qubity dsDNA Kit (ThermoFisher). Real time PCR was performed with the same amount DNA from each sample using TaqMan Universal PCR Master Mix Kit (ThermoFisher), under the PCR conditions: 50° C., 2 minutes; 95° C., 10 minutes; [95° C., 15 seconds, 60° C., 1 minutes]×35 cycles. Fold changes of mRNA expression levels were calculated using formula 2^rrCT (rrCT: cycle threshold of treatment group-cycle threshold of control group).
BCX-010 cells (FIG. 2A) and Sum-159 cells (FIG. 2B) were treated decitabine (1 μM), panobinostat (20 nM), or DMSO for three days. Total RNA was extracted from the treated cells using GeneJet RNA kit, followed by reverse transcription using High Capacity RNA-to-cDNA kit. cDNAs were quantitated using Qubit DNA kit. Quantitative real time PCR (qPCR) was performed using Taqman Universal PCR Master Mix kit with a TROP2 probe. Relative TROP2 levels were obtained by normalization with GAPDH. Additionally, BCX-010CL cells were treated with shRNA control or ZEB1 shRNA (FIG. 2C).

[5] = tested on: TROP2; assay: Immunocytochemistry of TROP2 in SUM159 cells; type: cell-based, human; settings: 1 μM for 3 days
Description: SUM159 cells were treated with decitabine at 1 μM for 3 days. After cell fixation, cell pellet blocks were processed and probed with anti-TROP2 antibody, followed by hematoxylin staining.
After cell fixation, cell pellet blocks were processed and probed with anti-TROP2 antibody, followed by hematoxylin staining (FIG. 2D).
Formalin-fixed paraffin-embedded (FFPE) cell lines/tissue of 4-micron thickness slides were baked at 60° C. for 1 hour. IHC staining was performed using Leica BondRXm autostainer (Leica Biosystems) for further processing. In brief, after deparaffinized by bond dewax solution, epitope retrieval (HIER) was performed with citrate buffer pH6, followed by washing steps. After peroxidase blocking (3% H2O2) for 20 minutes, slides were incubated in TROP2 rabbit monoclonal [EPR20043], catalog #ab214488 with a 1:2000 dilution for 15 minutes at ambient temperature. After transient washing, post-primary and polymer incubation for 8 min, followed by hematoxylin staining and wash steps. Afterwards, the slides were unloaded from autostainer, air dried and cover slipped with mounting media (Cytoseal XYL mounting media).

[6] = tested on: DNMT1, DNMT3A, and DNMT3B; assay: Immunoblotting of DNA methyltransferases (DNMTs); type: cell-based, human; settings: breast cancer cell lines; 1 μM for 3 days; FIG. 3B
Description: as §1

[7] = tested on: BCX-010, BCX-011 and Sum-159 cells; assay: Annexin V flow cytometry apoptosis assay; type: cell-based, human; settings: decitabine 1 μM and/or sacituzumab govitecan 0.1 μM, three days; FIGS. 5A-5D
Description: In order to determine the effect of decitabine and/or Zeb1 knockdown treatment on sacituzumab govitecan activity, apoptosis was measured in breast cancer cell lines. BCX-010 cells (FIG. 5A and FIG. 5B), BCX-011 cells (FIG. 5C) and Sum-159 cells (FIG. 5D) were seeded in 6-cm plates, then treated with decitabine (1 μM) and/or sacituzumab govitecan (0.1 μM) for three days in an apoptosis assay. After the three day treatment, cells were stained with Annexin V. Flow cytometry was performed to sort Annexin V positive cells (apoptotic cells) (FIGS. 5A-5D). Percentage of apoptotic cells was calculated by Annexin V positive cells over total cell populations.
Cells were seeded in 6 cm plates at a density of 3×10^5 cells per well in triplicates for each treatment group. The following day, cells were treated with decitabine and SG at 1 μM and 0.1 μM respectively, or their combination. […] Using Annexin-V-FLUOS Staining Kit (Roche), cells were stained with Annexin V fluorescence and propidium iodide (PI), following manufacturer's protocol. Samples were analyzed by flow cytometry. Percentage of Annexin V positive apoptotic cells were calculated.
In apoptosis assay, cells were treated with decitabine at 1 μM, SG at 0.1 μM, or their combination for 3 days. Annexin V positive apoptotic cells were measured by flow cytometry. Percentage of apoptotic cells over total cell populations was calculated (FIG. 7D).

[8] = tested on: Sum-159 cells; assay: Colony formation assay, Sum-159; type: cell-based, human; settings: sacituzumab govitecan 200 nM, decitabine 200 nM
Description: FIGS. 6A-6E show a colony assay of BCX-010 (FIGS. 6A-6B), BCX-011 (FIG. 6C-6D), and Sum-159 cells ([…]) after treatment with vehicle, sacituzumab govitecan (200 nM), and/or decitabine (200 nM) for 10 days. FIGS. 6A-6C show agar plates after 10 days of colony formation.
In order to determine the effect of decitabine treatment on sacituzumab govitecan activity, colony formation assays were performed in BCX-010 cells (FIGS. 6A-6B), BCX-011 cells (FIG. 6C-6D), and Sum-159 breast cancer cells (FIG. 6E-6F).
Cells were seeded in 6-well plates at a density of 1000 cells per well in triplicates for each treatment group. Next day, cells were treated with single drugs, or combination at the different concentrations. Culture medium was changed with fresh drugs twice a week. Cells were cultured for 3 weeks. Cell colonies were then fixed in 10% formalin and stained with 0.05% crystal violet in 25% methanol. The stained colonies were imaged and total colony area was quantitated using NIH ImageJ v.1.48 software. Effect-based Combination Index (CI) was calculated by inhibition percentage of single drug and combination treatments using Bliss combination model. CI=((EA+EB)−(EA*EB))/EAB, where EA, EB, and EAB are effects of drug A, B and combination AB inhibition percentage. Here the effect is inhibition percentage of colony formation compared to vehicle controls. […]

[9] = tested on: BCX-010 cells; assay: Colony formation assay, BCX-010 control and Zeb1 knockdown; type: cell-based, human; settings: BCX-010 control and Zeb1 knockdown cells; decitabine 5 nM, sacituzumab govitecan 20 nM, 14 days
Description: FIGS. 7A-7B show a colony assay of BCX-010 cells transfected with control shRNA (FIG. 7A) or Zeb1 shRNA (FIG. 7B) after treatment with vehicle, sacituzumab govitecan (20 nM), and/or decitabine (5 nM) for 14 days. After 14 days, cell colonies formed on the plates, were fixed with 10% formalin, and stained with 0.05% crystal violet. […] Annexin V positive apoptotic cells were measured by flow cytometry. Percentage of apoptotic cells over total cell populations was calculated.
In order to determine the effect of decitabine and/or Zeb1 knockdown treatment on sacituzumab govitecan activity, colony formation assays were performed in BCX-010 breast cancer cells. BCX-010 cells (control and Zeb1 knockdown) were seeded into 6-well plates at 1000 cells/well. Cells were treated with decitabine (5 nM) and/or sacituzumab govitecan ([…]) for 14 days. Culture medium with replaced with culture medium containing fresh drugs twice. After 14 days, cell colonies form on the plates were fixed with 10% formalin and stained with 0.05% crystal violet. Total colony area and colony number were quantified using ImageJ software.

[10] = tested on: BCX-010CL cells; assay: Cell survival assay of SN-38 with or without decitabine; type: cell-based, human; settings: decitabine co-treatment, 3 days, FIG. 10B
Description: BCX-010CL cells were treated with SN-38 at serial dilutions, with or without decitabine co-treatment for 3 days. IC50s of individual agents and combination index were calculated.
BCX-010CL cells were also treated with SN-38 at serial dilutions, with or without decitabine co-treatment for 3 days. IC50s of individual agents and combination index were calculated.

[11] = tested on: BCX-010CL, HCC-1954, HCC-1143, and MDA-MB-157 cells; assay: Cell survival assay of Sacituzumab govitecan with or without decitabine; type: cell-based, human; settings: HCC-1954, HCC-1143, MDA-MB-157, decitabine co-treatment, 3 days, FIG. 10C
Description: BCX-010CL, HCC-1954, HCC-1143, and MDA-MB-157 cells were treated with Sacituzumab govitecan at serial dilutions, with or without decitabine co-treatment for 3 days. IC50s of individual agents and combination index were calculated.
Finally, BCX-010CL, HCC-1954, HCC-1143, and MDA-MB-157 cells were treated with Sacituzumab govitecan at serial dilutions, with or without decitabine co-treatment for 3 days. IC50s of individual agents and combination index were calculated.

[12] = tested on: TROP2 promoter; assay: Methylation-specific PCR of TROP2 promoter CpG region; settings: BCX-010 cells; decitabine 1 μM; FIG. 3A
Description: Genomic DNA was extracted from BCX-010CL and BCX-011CL cells treated decitabine at 1 μM for 3 days, or from ZEB1 knockdown cells, and then subjected bisulfite CT conversion, followed by MSP using methylation specific primers specific to a CpG region in the TROP2 promoter. GAPDH was used as a control.
Following treatments, cells were lysed and genomic DNA (gDNA) was extracted using Genomic DNA Purification Kit (ThermoFisher) according to manufacturer's manual. Bisulfite CT conversion of quantitated gDNA was performed using EZ DNA Methylation Kit (Zymo Research) following manufacturer's manual. MSP of TROP2 promoter CpG region was performed using a methylation forward primer, a methylation reverse primer, an un-methylated forward primer, and an un-methylated reverse primer. PCR condition was set up as following: 94° C., 1 minute; [94° C., 30 seconds, 62° C., 30 seconds, 72° C., 45 seconds]×40 cycles; 72° C., 2 minutes, 4° C. About 200 bp PCR product was separated by 2% agarose gel.

SMILES: Nc1ncn([C@H]2C[C@H](O)[C@@H](CO)O2)c(=O)n1 [decitabine, 5-Aza-2′-deoxycytidine]
- TROP2 protein expression ([1]; 1 μM for 3 days, BCX-011, BCX-010, Sum-159, BCX-010 control shRNA, BCX-010 Zeb1 shRNA, FIG. 1B): increased TROP2 protein expression in all 5 cell lines
- TROP2 expression, panel of epigenetic modulators (immunoblot) ([1]; BCX-010CL, BCX-011CL, SUM159 cells, 3 days, FIG. 1D): most effective enhancer of TROP2 expression
- E-cadherin expression [2]: increased E-cadherin expression
- SLFN11 expression (immunoblot) [3]: increases SLFN11 expression
- TROP2 mRNA expression (qPCR, normalized with GAPDH) [4]: increased TROP2 mRNA expression in all cell lines
- TROP2 expression (immunocytochemistry) [5]: increases TROP2 expression in SUM159 cells
- protein levels of DNMT1, DNMT3A, and DNMT3B [6]: decreased protein levels of three DNMT isoforms
- apoptosis (Annexin V positive cells) [7]: induced cell apoptosis in BCX-010 and Sum-159 cells
- colony formation [8]: inhibited cell colony formation in Sum-159 cells
- colony formation [9]: inhibited cell colony formation
- sensitization of cells to SN-38 (cell survival) [10]: sensitizes cells to SN-38 in BCX-010CL cells
- sensitization of cells to Sacituzumab govitecan (cell survival) [11]: sensitizes cells to Sacituzumab govitecan in breast cancer cell lines
- TROP2 promoter methylation (MSP) [12]: decreased TROP2 promoter methylation
